Biological target: T1, F508del (Homo sapiens, UniProt P13569, DEL508-508)
T1 construct: expressed in transfected cells
Experiment: Protocol 2: FRET membrane potential optical assay (VIPR), identification of correction compounds
Type: cell-based
Details: Table 3; compounds of Table 1 as modulators of CFTR activity; protocol not stated
Summary of the method: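 Corrector readout: membrane-potential FRET (CC2-DMPE donor, DiSBAC2(3) acceptor) on VIPR II after Cl⁻-free gluconate bath with 10 μM forskolin and 20 μM genistein. Before this, F508del-expressing NIH3T3 cells were exposed to test compound for 16 h at 37 °C without serum; 27 °C incubation served as temperature-correction control.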

T1 sequence (P13569 with tags, fused parts or gaps DEL508-508): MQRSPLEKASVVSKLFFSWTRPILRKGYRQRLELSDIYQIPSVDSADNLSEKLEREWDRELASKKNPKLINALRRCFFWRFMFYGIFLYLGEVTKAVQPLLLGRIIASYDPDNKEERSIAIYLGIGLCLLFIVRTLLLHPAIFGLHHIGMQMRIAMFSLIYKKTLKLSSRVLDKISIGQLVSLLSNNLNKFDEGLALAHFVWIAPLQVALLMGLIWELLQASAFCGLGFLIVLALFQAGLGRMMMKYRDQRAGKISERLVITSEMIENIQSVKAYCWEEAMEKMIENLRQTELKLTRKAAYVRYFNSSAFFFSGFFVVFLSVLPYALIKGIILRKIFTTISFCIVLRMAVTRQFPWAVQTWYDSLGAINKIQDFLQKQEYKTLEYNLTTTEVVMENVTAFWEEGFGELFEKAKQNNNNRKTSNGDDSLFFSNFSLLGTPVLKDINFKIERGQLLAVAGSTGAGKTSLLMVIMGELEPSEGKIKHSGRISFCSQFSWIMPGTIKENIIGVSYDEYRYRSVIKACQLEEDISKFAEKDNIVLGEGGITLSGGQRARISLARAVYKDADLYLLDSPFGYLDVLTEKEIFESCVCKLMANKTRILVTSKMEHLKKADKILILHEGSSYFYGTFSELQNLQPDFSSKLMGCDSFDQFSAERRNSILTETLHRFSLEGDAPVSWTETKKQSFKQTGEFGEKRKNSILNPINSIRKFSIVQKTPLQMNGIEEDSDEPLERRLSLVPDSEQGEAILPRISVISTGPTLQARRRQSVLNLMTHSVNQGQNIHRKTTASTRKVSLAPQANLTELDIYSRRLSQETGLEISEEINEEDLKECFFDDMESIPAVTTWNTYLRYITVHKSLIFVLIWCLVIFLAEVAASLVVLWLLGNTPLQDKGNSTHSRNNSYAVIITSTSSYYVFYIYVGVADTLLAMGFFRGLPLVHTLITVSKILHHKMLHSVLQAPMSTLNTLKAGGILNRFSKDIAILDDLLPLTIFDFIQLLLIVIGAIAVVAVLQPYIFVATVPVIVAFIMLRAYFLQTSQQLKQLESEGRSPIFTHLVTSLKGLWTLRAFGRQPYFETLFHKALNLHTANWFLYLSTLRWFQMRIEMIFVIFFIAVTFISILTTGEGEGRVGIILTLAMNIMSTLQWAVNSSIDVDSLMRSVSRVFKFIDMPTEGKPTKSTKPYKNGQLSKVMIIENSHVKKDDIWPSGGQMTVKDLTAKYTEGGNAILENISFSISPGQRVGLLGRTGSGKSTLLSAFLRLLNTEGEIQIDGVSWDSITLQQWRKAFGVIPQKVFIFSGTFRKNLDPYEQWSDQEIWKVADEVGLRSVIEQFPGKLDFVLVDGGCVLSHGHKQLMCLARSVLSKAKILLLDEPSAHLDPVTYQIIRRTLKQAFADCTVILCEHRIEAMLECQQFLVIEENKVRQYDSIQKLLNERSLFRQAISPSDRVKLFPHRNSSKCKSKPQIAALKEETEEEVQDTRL

Row | EC30 | Compound
1 | +++ (“+++” means <3 uM) | Cc1cc(C)c(Cn2nc(C(C)(C)C)c(C)c2C(=O)NS(=O)(=O)c2cccc(N)n2)c(C)c1 [Compound 356, N-[(6-amino-2-pyridyl)sulfonyl]-5-tert-butyl-4-methyl-2-[(2,4,6-trimethylphenyl)methyl]pyrazole-3-carboxamide]
2 | +++ (“+++” means <3 uM) | COc1ncccc1S(=O)(=O)NC(=O)c1ccc(C2(C)CC2)nc1Oc1c(C)cc(C)cc1C [Compound 365, N-[(2-methoxy-3-pyridyl)sulfonyl]-6-(1-methylcyclopropyl)-2-(2,4,6-trimethylphenoxy)pyridine-3-carboxamide]
3 | +++ (“+++” means <3 uM) | Cc1cc(C)c(Cn2nc(-c3ccccc3)cc2C(=O)NS(=O)(=O)c2cccc(N)c2)c(C)c1 [Compound 366]
4 | +++ (“+++” means <3 uM) | Cc1cc(C)c(Cc2cn(C(C)(C)C)nc2C(=O)NS(=O)(=O)c2cccc(N)c2)c(C)c1 [Compound 367]
5 | +++ (“+++” means <3 uM) | Cc1cccc(C)c1Cn1nc(-c2ccccc2C(F)(F)F)cc1C(=O)NS(=O)(=O)c1ccccc1 [Compound 369, N-(benzenesulfonyl)-2-[(2,6-dimethylphenyl)methyl]-5-[2-(trifluoromethyl)phenyl]pyrazole-3-carboxamide]
6 | +++ (“+++” means <3 uM) | Cc1cccc(C)c1Cn1nc(C2CC3CCC2C3)cc1C(=O)NS(=O)(=O)c1cccc(N)c1 (centres unmarked) [Compound 370, N-(3-aminophenyl)sulfonyl-2-[(2,6-dimethylphenyl)methyl]-5-norbornan-2-yl-pyrazole-3-carboxamide]
7 | ++ (“++” means between 3 uM and 10 uM) | COCCNc1cccc(S(=O)(=O)NC(=O)c2ccc(C)nc2Oc2c(C)cc(C)cc2C)n1 [Compound 372, N-[[6-(2-methoxyethylamino)-2-pyridyl]sulfonyl]-6-methyl-2-(2,4,6-trimethylphenoxy)pyridine-3-carboxamide]
8 | +++ (“+++” means <3 uM) | Cc1cc(C)c(CN2Cc3ccccc3C2(C)C(=O)NS(=O)(=O)c2ncccc2O)c(C)c1 (centres unmarked) [Compound 377, N-[(3-hydroxy-2-pyridyl)sulfonyl]-1-methyl-2-[(2,4,6-trimethylphenyl)methyl]isoindoline-1-carboxamide]
9 | +++ (“+++” means <3 uM) | Cc1cc(C)c(CN2Cc3ccccc3C2(C)C(=O)NS(=O)(=O)c2ccn[nH]2)c(C)c1 (centres unmarked) [Compound 378, 1-methyl-N-(1H-pyrazol-5-ylsulfonyl)-2-[(2,4,6-trimethylphenyl)methyl]isoindoline-1-carboxamide]
10 | ++ (“++” means between 3 uM and 10 uM) | Cc1ccc(Oc2nc(-c3cnn(CC(C)C)c3)ccc2C(=O)NS(=O)(=O)c2cccc(N)n2)c(C)c1 [Compound 381, N-[(6-amino-2-pyridyl)sulfonyl]-2-(2,4-dimethylphenoxy)-6-(1-isobutylpyrazol-4-yl)pyridine-3-carboxamide]
11 | +++ (“+++” means <3 uM) | CCOc1cc(F)cc(-c2ccc(C(=O)NS(=O)(=O)c3ccn[nH]3)c(N3[C@H](C)CC[C@@H]3C)n2)c1 [Compound 382, 2-[(2R,5S)-2,5-dimethylpyrrolidin-1-yl]-6-(3-ethoxy-5-fluoro-phenyl)-N-(1H-pyrazol-5-ylsulfonyl)pyridine-3-carboxamide]

Continued, molecule first:

Row | Compound | EC30
12 | CC(C)Oc1ccc(-c2ccc(C(=O)NS(=O)(=O)c3cccc(N)n3)c(N3CCCC(C)C3C)n2)cn1 (centres unmarked) [Compound 353, N-[(6-amino-2-pyridyl)sulfonyl]-2-(2,3-dimethyl-1-piperidyl)-6-(6-isopropoxy-3-pyridyl)pyridine-3-carboxamide] | +++ (“+++” means <3 uM)
13 | Cc1cc(C)c(Cn2c(C(=O)NS(=O)(=O)c3ccccc3)cc3cccc(C)c32)c(C)c1 [Compound 354, N-(benzenesulfonyl)-7-methyl-1-[(2,4,6-trimethylphenyl)methyl]indole-2-carboxamide] | +++ (“+++” means <3 uM)
14 | CC(C)COc1cc(F)cc(-c2ccc(C(=O)NS(=O)(=O)c3ccn[nH]3)c(N3CCCCC3)n2)c1 [Compound 355, 6-(3-fluoro-5-isobutoxy-phenyl)-2-(1-piperidyl)-N-(1H-pyrazol-5-ylsulfonyl)pyridine-3-carboxamide] | +++ (“+++” means <3 uM)
15 | Cc1cccc(C)c1Cn1nc(-c2ccsc2)cc1C(=O)NS(=O)(=O)c1ccccc1 [Compound 357, N-(benzenesulfonyl)-2-[(2,6-dimethylphenyl)methyl]-5-(3-thienyl)pyrazole-3-carboxamide] | ++ (“++” means between 3 uM and 10 uM)
16 | Cc1cc(C)c(Cn2c(C(=O)NS(=O)(=O)c3ccccc3C#N)cc3ccccc32)c(C)c1 [Compound 358] | +++ (“+++” means <3 uM)
17 | CCc1ccc(-c2nc(C(C)(C)C)ccc2C(=O)NS(=O)(=O)c2cccc(N)c2)cc1 [Compound 359, N-(3-aminophenyl)sulfonyl-6-tert-butyl-2-(4-ethylphenyl)pyridine-3-carboxamide] | +++ (“+++” means <3 uM)
18 | Cc1cc(C)c(Cc2oc(C(C)(C)C)nc2C(=O)NS(=O)(=O)c2cccc(N)c2)c(C)c1 [Compound 360, N-(3-aminophenyl)sulfonyl-2-tert-butyl-5-[(2,4,6-trimethylphenyl)methyl]oxazole-4-carboxamide] | +++ (“+++” means <3 uM)
19 | CC(C)COc1cc(F)cc(-c2ccc(C(=O)NS(=O)(=O)c3cccc(N)n3)c(N3CCCC3(C)C)n2)c1 [Compound 361, N-[(6-amino-2-pyridyl)sulfonyl]-2-(2,2-dimethylpyrrolidin-1-yl)-6-(3-fluoro-5-isobutoxy-phenyl)pyridine-3-carboxamide] | +++ (“+++” means <3 uM)
20 | Cc1cc(C)c(Cn2c(C(=O)NS(=O)(=O)c3cccc(N)c3)cc3c(Cl)cccc32)c(C)c1 [Compound 362, N-(3-aminophenyl)sulfonyl-4-chloro-1-[(2,4,6-trimethylphenyl)methyl]indole-2-carboxamide] | +++ (“+++” means <3 uM)
21 | Cc1cccc(C)c1Cn1nc(-c2cccc3c2ccn3C)cc1C(=O)NS(=O)(=O)c1ccccc1 [Compound 363, N-(benzenesulfonyl)-2-[(2,6-dimethylphenyl)methyl]-5-(1-methylindol-4-yl)pyrazole-3-carboxamide] | +++ (“+++” means <3 uM)
22 | Cc1cc(C)c(Oc2nc(-c3ccccc3C(C)(C)C)ccc2C(=O)NS(=O)(=O)c2cccc(N)n2)c(C)c1 [Compound 364, N-[(6-amino-2-pyridyl)sulfonyl]-6-(2-tert-butylphenyl)-2-(2,4,6-trimethylphenoxy)pyridine-3-carboxamide] | +-F+
23 | CC(C)COc1cc(F)cc(-c2ccc(C(=O)NS(=O)(=O)c3cccc(N)n3)c(N3C[C@@H](C)CC3(C)C)n2)c1 [Compound 368, N-[(6-amino-2-pyridyl)sulfonyl]-6-(3-fluoro-5-isobutoxy-phenyl)-2-[(4S)-2,2,4-trimethylpyrrolidin-1-yl]pyridine-3-carboxamide] | +++ (“+++” means <3 uM)
24 | CC(C)COc1cc(F)cc(-c2ccc(C(=O)NS(=O)(=O)c3cccc(N)n3)c(N3C[C@H](C)C[C@H](C)C3)n2)c1 [Compound 371, N-[(6-amino-2-pyridyl)sulfonyl]-2-[(3R,5S)-3,5-dimethyl-1-piperidyl]-6-(3-fluoro-5-isobutoxy-phenyl)pyridine-3-carboxamide] | +++ (“+++” means <3 uM)
25 | C[C@@H]1CC[C@H](C)N1c1nc(C(C)(C)C)ccc1C(=O)NS(=O)(=O)c1cccc(N)n1 [Compound 373, N-[(6-amino-2-pyridyl)sulfonyl]-6-tert-butyl-2-[(2S,5R)-2,5-dimethylpyrrolidin-1-yl]pyridine-3-carboxamide] | ++ (“++” means between 3 uM and 10 uM)
26 | COc1ccc(-c2ccc(C(=O)NS(=O)(=O)c3cc[nH]n3)c(Oc3c(C)cc(C)cc3C)n2)c(F)c1 [Compound 374, 6-(2-fluoro-4-methoxy-phenyl)-N-(1H-pyrazol-3-ylsulfonyl)-2-(2,4,6-trimethylphenoxy)pyridine-3-carboxamide] | +++ (“+++” means <3 uM)
27 | COc1cc(-c2ccc(C(=O)NS(=O)(=O)c3cccc(N)n3)c(Oc3c(C)cc(C)cc3C)n2)ccc1C [Compound 375, N-[(6-amino-2-pyridyl)sulfonyl]-6-(3-methoxy-4-methyl-phenyl)-2-(2,4,6-trimethylphenoxy)pyridine-3-carboxamide] | +++ (“+++” means <3 uM)
28 | CC(C)COc1cc(F)cc(-c2ccc(C(=O)NS(=O)(=O)c3cccc(N)n3)c(Oc3ccccc3)n2)c1 [Compound 376, N-[(6-amino-2-pyridyl)sulfonyl]-6-(3-fluoro-5-isobutoxy-phenyl)-2-phenoxy-pyridine-3-carboxamide] | +++ (“+++” means <3 uM)
29 | COc1c(F)cc(Cl)cc1-c1cc(C(=O)NS(=O)(=O)c2ccccc2)n(Cc2c(C)cccc2C)n1 [Compound 379, N-(benzenesulfonyl)-5-(5-chloro-3-fluoro-2-methoxy-phenyl)-2-[(2,6-dimethylphenyl)methyl]pyrazole-3-carboxamide] | +++ (“+++” means <3 uM)
30 | CC(C)COc1cc(F)cc(-c2ccc(C(=O)NS(=O)(=O)c3cccc(N)n3)c(N3CCCCC3)n2)c1 [Compound 380, N-[(6-amino-2-pyridyl)sulfonyl]-6-(3-fluoro-5-isobutoxy-phenyl)-2-(1-piperidyl)pyridine-3-carboxamide] | +++ (“+++” means <3 uM)
31 | CC(C)COc1cc(F)cc(-c2ccc(C(=O)NS(=O)(=O)c3cccc(N)n3)c(N3CCC4CCCC43)n2)c1 (centres unmarked) [Compound 383, 2-(3,3a,4,5,6,6a-hexahydro-2H-cyclopenta[b]pyrrol-1-yl)-N-[(6-amino-2-pyridyl)sulfonyl]-6-(3-fluoro-5-isobutoxy-phenyl)pyridine-3-carboxamide] | +++ (“+++” means <3 uM)
32 | CC(C)CC(C)Oc1cc(-c2ccc(C(=O)NS(=O)(=O)c3cccc(N)n3)c(N3CC(C)CC3(C)C)n2)ccn1 (centres unmarked) [Compound 384, N-[(6-amino-2-pyridyl)sulfonyl]-6-[2-(1,3-dimethylbutoxy)-4-pyridyl]-2-(2,2,4-trimethylpyrrolidin-1-yl)pyridine-3-carboxamide] | +++ (“+++” means <3 uM)

From US10758534B2 (Vertex Pharmaceuticals Incorporated, priority 2014, dated 2020)
